The target of experiment [1] is T1, Histone-lysine N-methyltransferase EZH2 (Homo sapiens, UniProt Q15910). The experiment in a line: Inhibition of human EZH2 using core histone as substrate incubated for 1 hr by fluorescence based assay.
Target sequence in this assay (Q15910 whole entry): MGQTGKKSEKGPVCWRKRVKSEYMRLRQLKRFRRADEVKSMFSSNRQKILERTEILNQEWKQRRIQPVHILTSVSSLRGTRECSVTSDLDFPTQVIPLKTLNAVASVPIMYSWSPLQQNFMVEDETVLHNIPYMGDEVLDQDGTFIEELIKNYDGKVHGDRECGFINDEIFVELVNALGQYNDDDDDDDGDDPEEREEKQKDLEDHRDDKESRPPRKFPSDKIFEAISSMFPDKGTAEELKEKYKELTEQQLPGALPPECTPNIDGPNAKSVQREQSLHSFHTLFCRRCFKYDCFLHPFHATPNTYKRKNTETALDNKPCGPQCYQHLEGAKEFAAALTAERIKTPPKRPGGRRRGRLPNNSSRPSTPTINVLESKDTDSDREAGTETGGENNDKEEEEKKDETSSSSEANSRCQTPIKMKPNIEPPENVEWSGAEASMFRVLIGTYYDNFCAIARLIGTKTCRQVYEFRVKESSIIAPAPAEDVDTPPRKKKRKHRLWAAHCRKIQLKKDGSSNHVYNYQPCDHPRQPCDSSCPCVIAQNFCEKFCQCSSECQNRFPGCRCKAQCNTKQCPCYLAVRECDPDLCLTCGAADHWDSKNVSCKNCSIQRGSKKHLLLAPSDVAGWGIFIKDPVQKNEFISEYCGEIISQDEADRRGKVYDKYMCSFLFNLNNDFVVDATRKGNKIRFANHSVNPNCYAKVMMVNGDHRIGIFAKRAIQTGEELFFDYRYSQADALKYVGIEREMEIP
Experiment [2] deals with Histone deacetylase 1 (Homo sapiens, UniProt Q13547). Nature of the experiment: Inhibition of human recombinant HDAC1 using AMC-K(Ac)GL as substrate by fluorescence based assay.
Experiment [3] addresses Histone deacetylase 2 (Homo sapiens, UniProt Q92769).
Description: Inhibition of human recombinant HDAC2 using AMC-K(Ac)GL as substrate by fluorescence based assay
The target in experiment [4] is Histone deacetylase 3 (Homo sapiens, UniProt O15379). Nature of the experiment: Inhibition of human recombinant HDAC3 using AMC-K(Ac)GL as substrate by fluorescence based assay.
Sequence of Histone deacetylase 3 (O15379 whole entry): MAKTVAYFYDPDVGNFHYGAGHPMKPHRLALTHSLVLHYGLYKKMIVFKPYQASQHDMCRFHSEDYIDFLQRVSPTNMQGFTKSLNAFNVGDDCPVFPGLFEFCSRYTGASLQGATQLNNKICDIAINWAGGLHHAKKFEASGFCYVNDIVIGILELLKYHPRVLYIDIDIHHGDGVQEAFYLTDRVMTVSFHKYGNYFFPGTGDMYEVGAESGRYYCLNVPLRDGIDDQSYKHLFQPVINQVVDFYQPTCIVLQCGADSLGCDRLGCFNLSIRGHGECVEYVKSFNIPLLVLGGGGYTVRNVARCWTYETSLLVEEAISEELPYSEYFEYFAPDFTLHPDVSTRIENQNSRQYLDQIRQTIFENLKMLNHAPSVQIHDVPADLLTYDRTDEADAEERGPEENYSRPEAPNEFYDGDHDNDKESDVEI
In experiment [5] the target is Histone deacetylase 5 (Homo sapiens, UniProt Q9UQL6). Nature of the experiment: Inhibition of human recombinant HDAC5 using AMC-K(TFA)GL as substrate by fluorescence based assay.
Sequence of Histone deacetylase 5 (Q9UQL6 whole entry): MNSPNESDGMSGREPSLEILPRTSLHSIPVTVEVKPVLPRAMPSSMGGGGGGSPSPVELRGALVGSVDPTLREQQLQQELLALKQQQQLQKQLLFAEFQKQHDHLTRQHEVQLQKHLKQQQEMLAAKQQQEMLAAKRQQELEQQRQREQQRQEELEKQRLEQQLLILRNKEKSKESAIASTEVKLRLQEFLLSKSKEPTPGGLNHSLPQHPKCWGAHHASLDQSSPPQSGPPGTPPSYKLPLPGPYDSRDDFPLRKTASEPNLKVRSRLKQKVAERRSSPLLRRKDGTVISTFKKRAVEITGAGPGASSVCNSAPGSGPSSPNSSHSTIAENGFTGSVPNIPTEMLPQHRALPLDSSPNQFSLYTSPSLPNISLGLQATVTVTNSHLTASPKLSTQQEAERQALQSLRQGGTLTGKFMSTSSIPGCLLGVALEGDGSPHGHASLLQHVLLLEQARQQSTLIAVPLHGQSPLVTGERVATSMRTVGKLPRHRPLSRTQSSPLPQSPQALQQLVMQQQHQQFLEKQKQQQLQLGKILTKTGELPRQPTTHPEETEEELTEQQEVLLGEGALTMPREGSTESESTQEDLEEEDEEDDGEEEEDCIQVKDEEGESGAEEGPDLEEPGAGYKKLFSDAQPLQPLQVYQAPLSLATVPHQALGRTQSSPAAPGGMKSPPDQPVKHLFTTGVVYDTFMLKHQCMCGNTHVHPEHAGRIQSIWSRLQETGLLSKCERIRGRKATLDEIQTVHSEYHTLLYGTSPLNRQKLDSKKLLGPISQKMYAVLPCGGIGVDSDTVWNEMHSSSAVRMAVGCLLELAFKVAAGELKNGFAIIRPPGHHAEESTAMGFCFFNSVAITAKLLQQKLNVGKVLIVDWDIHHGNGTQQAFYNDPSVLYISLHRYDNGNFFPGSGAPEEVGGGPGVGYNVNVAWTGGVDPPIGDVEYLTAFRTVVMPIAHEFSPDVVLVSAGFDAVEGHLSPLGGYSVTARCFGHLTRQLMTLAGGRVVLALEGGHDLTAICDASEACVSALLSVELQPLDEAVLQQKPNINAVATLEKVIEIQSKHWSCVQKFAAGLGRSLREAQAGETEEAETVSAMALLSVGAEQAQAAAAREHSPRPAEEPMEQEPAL
The target of experiment [6] is T2, Protein deacetylase HDAC6 (Homo sapiens, UniProt Q9UBN7).
T2 sequence (Q9UBN7 whole entry): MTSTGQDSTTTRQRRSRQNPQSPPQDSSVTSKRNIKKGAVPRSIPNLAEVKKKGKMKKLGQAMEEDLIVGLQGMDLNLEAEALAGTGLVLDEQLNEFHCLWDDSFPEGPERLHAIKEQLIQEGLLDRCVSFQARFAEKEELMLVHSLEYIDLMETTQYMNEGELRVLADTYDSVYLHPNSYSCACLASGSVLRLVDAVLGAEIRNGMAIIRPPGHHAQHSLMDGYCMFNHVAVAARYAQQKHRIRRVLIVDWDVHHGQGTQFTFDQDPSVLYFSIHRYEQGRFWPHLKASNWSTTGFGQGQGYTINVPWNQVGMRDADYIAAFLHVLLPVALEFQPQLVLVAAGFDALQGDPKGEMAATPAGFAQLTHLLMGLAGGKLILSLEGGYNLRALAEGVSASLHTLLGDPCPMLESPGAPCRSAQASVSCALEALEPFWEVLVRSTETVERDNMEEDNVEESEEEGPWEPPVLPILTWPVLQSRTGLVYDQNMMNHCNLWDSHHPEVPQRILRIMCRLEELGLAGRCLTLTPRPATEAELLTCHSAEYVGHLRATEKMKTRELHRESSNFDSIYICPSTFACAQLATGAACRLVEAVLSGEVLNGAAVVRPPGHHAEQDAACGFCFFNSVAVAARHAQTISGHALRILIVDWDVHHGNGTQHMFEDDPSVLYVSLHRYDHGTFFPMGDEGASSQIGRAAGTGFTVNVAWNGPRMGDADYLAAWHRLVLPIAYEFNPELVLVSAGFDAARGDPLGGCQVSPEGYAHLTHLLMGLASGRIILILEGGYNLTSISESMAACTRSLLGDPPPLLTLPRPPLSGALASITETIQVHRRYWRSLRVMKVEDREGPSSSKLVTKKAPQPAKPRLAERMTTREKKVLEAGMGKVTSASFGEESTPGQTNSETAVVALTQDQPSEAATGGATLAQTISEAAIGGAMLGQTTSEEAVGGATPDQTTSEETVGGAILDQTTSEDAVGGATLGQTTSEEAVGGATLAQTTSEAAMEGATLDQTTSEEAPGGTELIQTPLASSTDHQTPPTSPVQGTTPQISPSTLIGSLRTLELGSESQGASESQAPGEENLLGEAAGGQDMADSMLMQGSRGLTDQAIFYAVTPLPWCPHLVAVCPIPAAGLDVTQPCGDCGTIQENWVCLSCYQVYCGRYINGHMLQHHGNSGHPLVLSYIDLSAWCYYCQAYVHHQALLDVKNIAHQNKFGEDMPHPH
Nature of the experiment: Inhibition of human recombinant HDAC6 using AMC-K(Ac)GL as substrate by fluorescence based assay.

Experiment [7] addresses T3, Histone deacetylase 8 (Homo sapiens, UniProt Q9BY41).
T3 sequence (Q9BY41 whole entry): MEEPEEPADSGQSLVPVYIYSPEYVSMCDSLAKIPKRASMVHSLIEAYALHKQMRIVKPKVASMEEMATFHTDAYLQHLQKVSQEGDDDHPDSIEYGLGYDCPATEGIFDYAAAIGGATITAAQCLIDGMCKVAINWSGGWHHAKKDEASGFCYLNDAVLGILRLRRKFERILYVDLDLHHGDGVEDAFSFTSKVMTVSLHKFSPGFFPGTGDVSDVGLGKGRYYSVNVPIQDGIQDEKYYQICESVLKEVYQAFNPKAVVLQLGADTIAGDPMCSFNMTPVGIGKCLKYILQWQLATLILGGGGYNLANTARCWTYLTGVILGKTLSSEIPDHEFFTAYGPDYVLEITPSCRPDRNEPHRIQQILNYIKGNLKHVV
Nature of the experiment: Inhibition of human recombinant HDAC8 using AMC-K(Ac)GL as substrate by fluorescence based assay.

Experiment [8] has as its target T1, Histone-lysine N-methyltransferase EZH2. Nature of the experiment: Inhibition of human EZH2 using core histone as substrate at 100 uM incubated for 1 hr by fluorescence based assay relative to control.
Target sequence in this assay (Q15910 whole entry, looked up): as the sequence (Q15910 whole entry) above

pIC50: −log10 of the molar value.

Sequence of Histone deacetylase 2 (Q92769 whole entry): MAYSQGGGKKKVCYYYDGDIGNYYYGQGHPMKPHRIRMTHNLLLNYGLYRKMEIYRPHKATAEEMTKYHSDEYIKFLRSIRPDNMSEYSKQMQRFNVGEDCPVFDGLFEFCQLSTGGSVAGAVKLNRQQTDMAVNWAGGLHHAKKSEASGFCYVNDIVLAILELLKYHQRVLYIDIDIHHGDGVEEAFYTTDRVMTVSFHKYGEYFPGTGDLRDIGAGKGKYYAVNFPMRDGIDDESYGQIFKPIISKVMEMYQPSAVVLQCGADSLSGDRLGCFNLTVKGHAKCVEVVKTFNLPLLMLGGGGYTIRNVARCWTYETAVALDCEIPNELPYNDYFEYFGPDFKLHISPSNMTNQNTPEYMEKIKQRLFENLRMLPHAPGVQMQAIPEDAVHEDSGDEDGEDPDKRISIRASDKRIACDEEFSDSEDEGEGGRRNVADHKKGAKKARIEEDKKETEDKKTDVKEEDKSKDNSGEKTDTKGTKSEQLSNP
Sequence of Histone deacetylase 1 (Q13547 whole entry): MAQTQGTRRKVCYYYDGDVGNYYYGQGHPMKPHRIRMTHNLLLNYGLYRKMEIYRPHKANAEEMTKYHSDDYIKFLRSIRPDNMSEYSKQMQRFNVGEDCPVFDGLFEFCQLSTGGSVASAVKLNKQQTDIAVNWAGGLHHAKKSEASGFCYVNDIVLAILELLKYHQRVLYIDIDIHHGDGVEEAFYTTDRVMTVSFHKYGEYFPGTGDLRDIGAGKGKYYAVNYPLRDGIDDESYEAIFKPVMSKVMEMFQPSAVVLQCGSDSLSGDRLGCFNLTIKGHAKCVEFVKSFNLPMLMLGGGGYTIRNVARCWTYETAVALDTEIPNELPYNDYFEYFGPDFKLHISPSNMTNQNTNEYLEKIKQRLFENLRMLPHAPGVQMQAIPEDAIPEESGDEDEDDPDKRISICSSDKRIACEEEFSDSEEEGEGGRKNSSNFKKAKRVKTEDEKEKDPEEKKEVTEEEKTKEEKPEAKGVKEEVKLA

The term pIC50 denotes −log10 of the IC50, conventionally taken in molar units. In experiment [1], `Cc1cc(C)c(CNC(=O)c2cnn(-c3ccccc3)c2C)c(=O)[nH]1` had a negative-log IC50 (pIC50) of 4.81.

As usually defined, the inhibition is how much of the control response was suppressed. A high value points to a response far below the control. `Cc1cc(C)c(CNC(=O)c2cnn(-c3cccc(NC(=O)CCCCCCC(=O)NO)c3)c2C)c(=O)[nH]1`: the pIC50 in experiment [2] was 6.08; in experiment [3] it was 5.63; in experiment [4], 5.83; in experiment [5], 4.00; in experiment [6] it was 8.00; in experiment [7], 5.68. The inhibition in experiment [8] is 4%.

Values taken from ChEMBL document CHEMBL4613315, “Design of First-in-Class Dual EZH2/HDAC Inhibitor: Biochemical Activity and Biological Evaluation in Cancer Cells” (ACS Med Chem Lett, 2020).
